Laboratory results: US20230060040A1, “USE OF TRANSFERRIN, TRANSFERRIN RECEPTOR AND ANTIBODY THEREOF IN PREPARATION OF ANTI-SARS-CoV-2 DRUG” (KUNMING INSTITUTE OF ZOOLOGY, CHINESE ACADEMY OF SCIENCES, priority 2020, published 2023)
Where “and” joins values, the source holds several entries; their conditions need not be identical. Equal entries are not always repeated. Where two headings read alike, the source gives them in different places.

Columns and labels:
SARS-CoV-2 [1] = type: cell-based
SARS-CoV-2 [2] = type: cell-based; conditions: read-out: EC50 by qRT-PCR
SARS-CoV-2 [3] = type: cell-based; conditions: Vero E6 cells, different concentrations, 48 h
SARS-CoV-2 spike protein = SARS-CoV-2 spike protein (Severe acute respiratory syndrome coronavirus 2, UniProt P0DTC2); conditions: SPR, spike protein 3.90625-250 nM, immobilized transferrin receptor

| Substance | EC50 (SARS-CoV-2 [1]; read-out: EC50 by CPE analysis) [nM] | EC50 (SARS-CoV-2 [2]) | inhibition of SARS-CoV-2 infection (SARS-CoV-2 [3]) | binding of SARS-CoV-2 spike protein to transferrin receptor (SARS-CoV-2 spike protein) | EC50 (SARS-CoV-2 [1]; read-out: EC50 calculated by CPE) |
| --- | --- | --- | --- | --- | --- |
| transferrin receptor: transferrin receptor protein purchased from Sino Biological, catalog number 11020-H07H | 80 | 93 nM and 50 nM | could inhibit SARS-CoV-2 infection | strong binding capacity |  |
| transferrin: main iron-containing plasma single-chain glycoprotein, purchased from Sigma, catalog number T4382 | 125 | 160 nM | could inhibit SARS-CoV-2 infection |  | 80 nM and 50 nM |
